Where two headings read alike, the source gives them in different places.
How the values were obtained:
BSA = molecular target: T1, BSA (Bos taurus, UniProt P02769); parameters: Intact protein LC/MS covalent labelling, fragments in pools of five, 200 uM each, 4 °C; conditions: 24 h, 4 °C, pool of five; 200 µM; covalent
T1 construct: gene ALB

NUDT7 = molecular target: T2, NUDT7 (Homo sapiens, UniProt P0C024); parameters: Intact protein LC/MS covalent labelling, fragments in pools of five, 200 uM each, 4 °C; conditions: 24 h, 4 °C, pool of five; 200 µM; covalent
T2 construct: residues 14-235, E. coli, pNIC28-Bsa4, N-terminal His6 tag removed by TEV, construct 26672 Da
T2 sequence (P0C024 14-235): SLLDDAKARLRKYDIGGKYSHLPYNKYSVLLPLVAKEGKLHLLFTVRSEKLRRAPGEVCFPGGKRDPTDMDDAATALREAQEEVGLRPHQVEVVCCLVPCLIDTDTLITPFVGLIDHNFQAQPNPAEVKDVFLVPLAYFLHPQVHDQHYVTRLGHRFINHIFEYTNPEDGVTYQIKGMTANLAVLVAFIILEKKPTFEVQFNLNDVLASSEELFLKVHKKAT

OTUB2 (OTUB2A) = molecular target: T3, OTUB2 (OTUB2A) (Homo sapiens, UniProt Q96DC9); parameters: Intact protein LC/MS covalent labelling, fragments in pools of five, 200 uM each, 4 °C; conditions: 24 h, 4 °C, pool of five; 200 µM; covalent
T3 construct: full length residues 1-234, E. coli BL21(DE3)-R3, His tag removed by TEV, construct 27312 Da
T3 sequence (Q96DC9 1-234): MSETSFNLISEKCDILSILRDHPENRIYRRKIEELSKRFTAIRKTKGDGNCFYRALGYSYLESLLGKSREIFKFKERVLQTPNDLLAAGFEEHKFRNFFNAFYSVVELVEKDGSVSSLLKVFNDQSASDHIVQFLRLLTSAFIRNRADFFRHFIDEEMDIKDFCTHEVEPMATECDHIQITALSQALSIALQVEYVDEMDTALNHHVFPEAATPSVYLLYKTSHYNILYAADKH

PCAF = molecular target: T4, PCAF (Homo sapiens, UniProt Q92831); parameters: Intact protein LC/MS covalent labelling, fragments in pools of five, 200 uM each, 4 °C; conditions: 24 h, 4 °C, pool of five; 200 µM; covalent
T4 construct: gene KAT2B
T4 sequence (Q92831 whole entry, the tested form may be a part): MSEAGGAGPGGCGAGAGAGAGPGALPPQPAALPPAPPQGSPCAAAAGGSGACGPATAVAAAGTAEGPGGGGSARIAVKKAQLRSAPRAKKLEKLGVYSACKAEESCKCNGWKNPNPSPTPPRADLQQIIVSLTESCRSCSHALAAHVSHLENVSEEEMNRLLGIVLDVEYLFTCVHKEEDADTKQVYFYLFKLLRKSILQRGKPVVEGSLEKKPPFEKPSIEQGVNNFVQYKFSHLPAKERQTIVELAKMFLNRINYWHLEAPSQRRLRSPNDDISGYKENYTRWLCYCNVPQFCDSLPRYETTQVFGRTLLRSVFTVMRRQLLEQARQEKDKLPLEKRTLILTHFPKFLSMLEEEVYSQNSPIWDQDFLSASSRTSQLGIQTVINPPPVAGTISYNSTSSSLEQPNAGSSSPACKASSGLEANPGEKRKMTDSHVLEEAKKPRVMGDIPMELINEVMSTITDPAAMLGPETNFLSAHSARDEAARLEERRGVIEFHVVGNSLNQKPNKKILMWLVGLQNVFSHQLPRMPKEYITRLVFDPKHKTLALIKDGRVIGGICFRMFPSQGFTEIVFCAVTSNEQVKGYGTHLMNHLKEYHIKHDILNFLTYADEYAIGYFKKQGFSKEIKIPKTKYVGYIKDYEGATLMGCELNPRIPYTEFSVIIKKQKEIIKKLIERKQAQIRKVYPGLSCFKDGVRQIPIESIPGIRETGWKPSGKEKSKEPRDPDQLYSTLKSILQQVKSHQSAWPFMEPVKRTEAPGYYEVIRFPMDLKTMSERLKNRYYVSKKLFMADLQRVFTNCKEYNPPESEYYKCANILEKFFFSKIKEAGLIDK

in vitro [1] = experiment: in vitro; parameters: species or system CCD841, HEK293; conditions: human, hb2 cells, read-out: HB-2 Cells Viability (%)
in vitro [2] = experiment: in vitro; parameters: species or system HB2, HEK293; conditions: human, ccd841 cells
in vitro [3] = experiment: in vitro; parameters: species or system HB2, CCD841; conditions: human, hek293 cells

T1 sequence (P02769 whole entry, the tested form may be a part): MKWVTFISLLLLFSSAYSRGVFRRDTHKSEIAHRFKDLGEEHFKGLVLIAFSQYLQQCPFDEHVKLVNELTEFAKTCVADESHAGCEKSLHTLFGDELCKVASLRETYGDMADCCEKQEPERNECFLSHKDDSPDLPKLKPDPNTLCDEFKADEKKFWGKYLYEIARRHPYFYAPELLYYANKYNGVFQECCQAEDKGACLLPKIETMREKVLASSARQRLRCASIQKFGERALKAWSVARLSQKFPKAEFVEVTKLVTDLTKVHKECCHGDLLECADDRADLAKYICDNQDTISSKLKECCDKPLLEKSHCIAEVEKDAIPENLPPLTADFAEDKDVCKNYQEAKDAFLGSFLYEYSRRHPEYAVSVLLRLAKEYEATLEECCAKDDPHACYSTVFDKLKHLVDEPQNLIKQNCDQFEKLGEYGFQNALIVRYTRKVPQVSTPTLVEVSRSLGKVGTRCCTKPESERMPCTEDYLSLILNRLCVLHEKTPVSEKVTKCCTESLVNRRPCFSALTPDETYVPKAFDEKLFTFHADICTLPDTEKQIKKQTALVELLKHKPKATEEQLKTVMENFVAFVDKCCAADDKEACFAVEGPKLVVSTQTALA

Row | Compound | BSA (BSA) | NUDT7 (NUDT7) | OTUB2 (OTUB2 (OTUB2A)) | PCAF (PCAF) | viability at 48 h, 10 µM (in vitro [1]) | viability at 48 h, 10 µM (in vitro [2]) | viability at 48 h, 10 µM (in vitro [3])
1 | O=C(CCl)NC(=O)Nc1ccc2c(c1)OCCO2 [PCM-0102614] | 0 | 0.23 | 0.27 | 0 | 88.7% | 83.6% | 80.3%
2 | O=C(CCl)N1CCOC(c2ccc(F)cc2)C1 (stereo not drawn) [PCM-0102615] | 0 | 0 | 0 | 0 | 2% | 12.6% | 4.8%
3 | O=C(CCl)NC1CCN(C(=O)c2ccco2)CC1 [PCM-0102619] | 0 | 0 | 0.1 | 0 | 105% | 101% | 84.6%
4 | NC(=O)c1c(NC(=O)CCl)sc2c1CCCC2 [PCM-0102620] | 0 | 0.36 | 0.16 | 0 | 42.3% | 73.1% | 29.6%
5 | C=CC(=O)N1CCn2c(cc3ccccc32)C1 [PCM-0102621] | 0 | 0 | 0 | 0 | 106% | 114% | 85.7%
6 | CC(C)(C)c1ccc(NC(=O)CCl)cc1 [PCM-0102622] | 0 | 0 | 0.32 | 0 | 12.6% | 38.7% | 10.3%
7 | Cc1ccc(C(=O)O)cc1NC(=O)CCl [PCM-0102624] | 0 | 0 | 0 | 0 | 102% | 108% | 86.2%
8 | O=C(CCl)N1CCCc2cc(S(=O)(=O)N3CCCC3)ccc21 [PCM-0102625] | 0 | 0 | 0 | 0 | 5.4% | 12.2% | 2.5%
9 | C=CC(=O)Nc1ccc(C)cn1 [PCM-0102627] | 0 | 0 | 0 | 0 | 96.7% | 84.1% | 78.8%
10 | Cc1ccc(S(=O)(=O)N2CCN(C(=O)CCl)CC2)c(C)c1 [PCM-0102628] | 0 | 0 | 0 | 0 | 35.6% | 82.6% | 82.4%
11 | C=CC(=O)N1CCOc2ccccc21 [PCM-0102629] | 0 | 0 | 0 | 0 | 80.9% | 86.1% | 71.1%
12 | Cc1nc(CN2CCN(C(=O)CCl)CC2)cs1 [PCM-0102630] | 0 | 0 | 0 | 0 | 92% | 79.3% | 67.4%
13 | C=CC(=O)N1CCN(C)CC1 [PCM-0102634] | 0 | 0 | 0 | 0 | 99.6% | 114% | 131%
14 | CN(Cc1cccs1)C(=O)CCl [PCM-0102636] | 0 | 0.17 | 0 | 0 | 11.3% | 57.7% | 7%
15 | C=CC(=O)N1CCC(S(=O)(=O)C(C)C)CC1 [PCM-0102637] | 0 | 0 | 0 | 0 | 98.6% | 119% | 102%
16 | Cc1cc(N2CCN(C(=O)CCl)CC2)nc(C(C)C)n1 [PCM-0102638] | 0.11 | 0 | 0 | 0 | 97.7% | 107% | 89.8%
17 | C=CC(=O)Nc1ccnn1-c1ccccc1C [PCM-0102643] | 0 | 0.12 | 0 | 0 | 87.4% | 88.7% | 64.4%

Row | Compound | BSA (BSA) | NUDT7 (NUDT7) | OTUB2 (OTUB2 (OTUB2A)) | PCAF (PCAF) | viability at 48 h, 10 µM (in vitro [1]) | viability at 48 h, 10 µM (in vitro [2]) | viability at 48 h, 10 µM (in vitro [3])
18 | C=CC(=O)NCC1CCN(C)c2ccccc21 (stereo not drawn) [PCM-0102644] | 0 | 0 | 0 | 0 | 106% | 98.5% | 73%
19 | C=CC(=O)NC1CCOC2(CCS(=O)(=O)C2)C1 (stereo not drawn) [PCM-0102645] | 0 | 0 | 0 | 0 | 102% | 115% | 110%
20 | C=CC(=O)N(C1CC1)C1CC(=O)NC1=O (stereo not drawn) [PCM-0102646] | 0 | 0 | 0 | 0 | 103% | 98.4% | 94.9%
21 | C=CC(=O)NCC1CCOCO1 (stereo not drawn) [PCM-0102648] | 0.2 | 0 | 0 | 0 | 102% | 104% | 88.8%
22 | C=CC(=O)N1CC2CC3CC2C1C3OC (stereo not drawn) [PCM-0102649] | 0 | 0 | 0.15 | 0 | 107% | 118% | 117%
23 | C=CC(=O)N1CCc2c([nH]c3ccccc23)C1 [PCM-0102650] | 0 | 0.14 | 0 | 0 | 100% | 107% | 85.6%
24 | CCNC(=O)NC(=O)CCl [PCM-0102654] | 0 | 0 | 0 | 0 | 90.8% | 92.6% | 82.2%
25 | CCOC(=O)C1CCN(C(=O)CCl)CC1 [PCM-0102656] | 0 | 0 | 0 | 0 | 86% | 90.3% | 69.4%
26 | Cc1c(Cl)cnc(NC(=O)CCl)c1Cl [PCM-0102657] | 0 | 0.06 | 0.2 | 0 | 101% | 98.2% | 99.6%
27 | O=C(CCl)N1N=C(c2ccco2)CC1c1ccsc1 (stereo not drawn) [PCM-0102659] | 0 | 0.39 | 0 | 0 | 15.3% | 15.6% | 3.5%
28 | CC1CCCC(NC(=O)CCl)C1C (stereo not drawn) [PCM-0102663] | 0.21 | 0 | 0.29 | 0 | 98.5% | 104% | 87.3%
29 | CC(C#N)(NC(=O)CCl)C1CC1 (stereo not drawn) [PCM-0102664] | 0 | 0 | 0 | 0 | 99.7% | 89.6% | 80.8%
30 | Cc1cc(NC(=O)CCl)n(-c2ccc(F)cc2)n1 [PCM-0102665] | 0 | 0 | 0.53 | 0 | 57% | 67.6% | 20.6%
31 | C=CC(=O)Nc1cccc(Br)c1 [PCM-0102667] | 0 | 0.08 | 0.18 | 0 | 97.1% | 89.4% | 86.4%
32 | CN(C(=O)CCl)c1ccc([N+](=O)[O-])cc1 [PCM-0102669] | 0 | 0.14 | 0 | 0 | 12.9% | 17.3% | 10.5%
33 | Cl.O=C(CCl)Nc1ccc(N2CCCC2)cc1 [PCM-0102670] | 0 | 0 | 0.48 | 0 | 35% | 41.8% | 30.3%

From publication PMC6556873, “Rapid Covalent-Probe Discovery by Electrophile-Fragment Screening” (Journal of the American Chemical Society, 2019)
